Measurements published in PubChem BioAssay (NCI).
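Five compound concentrations were applied to cells in 96-well plates for 48 hours; endpoints were derived by simple linear interpolation of the resulting dose-response curve. TGI: total growth inhibition.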

Experiments:
Assay in all cases: NCI tumour cell line growth inhibition, 48 h
P388/ADR leukemia = tested on: P388/ADR leukemia
NCI/ADR-RES ovarian = tested on: NCI/ADR-RES ovarian
OVCAR-5 ovarian = tested on: OVCAR-5 ovarian
MCF7 breast = tested on: MCF7 breast
HOP-92 NSCLC = tested on: HOP-92 NSCLC
UACC-62 melanoma = tested on: UACC-62 melanoma
M19-MEL melanoma = tested on: M19-MEL melanoma
UACC-257 melanoma = tested on: UACC-257 melanoma
IGROV1 ovarian = tested on: IGROV1 ovarian
DMS 273 small cell lung = tested on: DMS 273 small cell lung
A498 renal = tested on: A498 renal
SF-268 CNS = tested on: SF-268 CNS
U251 CNS = tested on: U251 CNS
CCRF-CEM leukemia = tested on: CCRF-CEM leukemia
COLO 205 colon = tested on: COLO 205 colon
A549 NSCLC = tested on: A549 NSCLC
MALME-3M melanoma = tested on: MALME-3M melanoma
HOP-18 NSCLC = tested on: HOP-18 NSCLC
XF 498 CNS = tested on: XF 498 CNS
RPMI-8226 leukemia = tested on: RPMI-8226 leukemia
DMS 114 small cell lung = tested on: DMS 114 small cell lung
NCI-H226 lung = tested on: NCI-H226 lung
MOLT-4 leukemia = tested on: MOLT-4 leukemia
NCI-H522 lung = tested on: NCI-H522 lung
SNB-75 CNS = tested on: SNB-75 CNS
SF-539 CNS = tested on: SF-539 CNS
UO-31 renal = tested on: UO-31 renal
SK-MEL-2 melanoma = tested on: SK-MEL-2 melanoma
SK-MEL-5 melanoma = tested on: SK-MEL-5 melanoma
OVCAR-4 ovarian = tested on: OVCAR-4 ovarian
SN12C renal = tested on: SN12C renal
K-562 leukemia = tested on: K-562 leukemia
SNB-78 CNS = tested on: SNB-78 CNS
NCI-H23 lung = tested on: NCI-H23 lung
DLD-1 colon = tested on: DLD-1 colon
SK-OV-3 ovarian = tested on: SK-OV-3 ovarian
SNB-19 CNS = tested on: SNB-19 CNS
SW-620 colon = tested on: SW-620 colon
NCI-H460 lung = tested on: NCI-H460 lung
RXF 393 renal = tested on: RXF 393 renal
KM20L2 colon = tested on: KM20L2 colon
OVCAR-3 ovarian = tested on: OVCAR-3 ovarian
SN12K1 renal = tested on: SN12K1 renal
HOP-62 NSCLC = tested on: HOP-62 NSCLC
EKVX NSCLC = tested on: EKVX NSCLC
LOX IMVI melanoma = tested on: LOX IMVI melanoma
SF-295 CNS = tested on: SF-295 CNS
OVCAR-8 ovarian = tested on: OVCAR-8 ovarian
HL-60(TB) leukemia = tested on: HL-60(TB) leukemia
P388 leukemia = tested on: P388 leukemia
HCC-2998 colon = tested on: HCC-2998 colon
HT29 colon = tested on: HT29 colon
KM12 colon = tested on: KM12 colon
CAKI-1 renal = tested on: CAKI-1 renal
HCT-15 colon = tested on: HCT-15 colon
SK-MEL-28 melanoma = tested on: SK-MEL-28 melanoma
HCT-116 colon = tested on: HCT-116 colon
786-0 renal = tested on: 786-0 renal
LXFL 529 NSCLC = tested on: LXFL 529 NSCLC
TK-10 renal = tested on: TK-10 renal
ACHN renal = tested on: ACHN renal
M14 melanoma = tested on: M14 melanoma
RXF-631 renal = tested on: RXF-631 renal

## O=NN(CCCl)C(=O)NC1CCC(O)CC1 (stereo not drawn)
P388/ADR leukemia
  TGI: 18 µM
NCI/ADR-RES ovarian
  TGI: 69.4 µM
OVCAR-5 ovarian
  TGI: > 100 µM
MCF7 breast
  TGI: > 100 µM
HOP-92 NSCLC
  TGI: 31.9 µM
UACC-62 melanoma
  TGI: 40.4 µM
M19-MEL melanoma
  TGI: > 91 µM
UACC-257 melanoma
  TGI: > 85.2 µM
IGROV1 ovarian
  TGI: > 100 µM
DMS 273 small cell lung
  TGI: > 100 µM
A498 renal
  TGI: > 100 µM
SF-268 CNS
  TGI: 43.3 µM
U251 CNS
  TGI: > 100 µM
CCRF-CEM leukemia
  TGI: 52.2 µM
COLO 205 colon
  TGI: > 72.9 µM
A549 NSCLC
  TGI: > 100 µM
MALME-3M melanoma
  TGI: > 71.1 µM
HOP-18 NSCLC
  TGI: > 90.9 µM
XF 498 CNS
  TGI: 60.3 µM
RPMI-8226 leukemia
  TGI: 34.9 µM
DMS 114 small cell lung
  TGI: 51.5 µM
NCI-H226 lung
  TGI: > 100 µM
MOLT-4 leukemia
  TGI: 68.4 µM
NCI-H522 lung
  TGI: 55.4 µM
SNB-75 CNS
  TGI: > 79.7 µM
SF-539 CNS
  TGI: > 61 µM
UO-31 renal
  TGI: > 100 µM
SK-MEL-2 melanoma
  TGI: > 100 µM
SK-MEL-5 melanoma
  TGI: > 100 µM
OVCAR-4 ovarian
  TGI: > 100 µM
SN12C renal
  TGI: > 100 µM
K-562 leukemia
  TGI: > 77.6 µM
SNB-78 CNS
  TGI: 63.3 µM
NCI-H23 lung
  TGI: > 100 µM
DLD-1 colon
  TGI: > 77 µM
SK-OV-3 ovarian
  TGI: > 100 µM
SNB-19 CNS
  TGI: > 100 µM
SW-620 colon
  TGI: > 100 µM
NCI-H460 lung
  TGI: > 100 µM
RXF 393 renal
  TGI: > 71.5 µM
KM20L2 colon
  TGI: > 100 µM
OVCAR-3 ovarian
  TGI: > 89.8 µM
SN12K1 renal
  TGI: > 100 µM
HOP-62 NSCLC
  TGI: > 100 µM
EKVX NSCLC
  TGI: > 100 µM
LOX IMVI melanoma
  TGI: > 60.6 µM
SF-295 CNS
  TGI: > 80.2 µM
OVCAR-8 ovarian
  TGI: > 100 µM
HL-60(TB) leukemia
  TGI: 41.9 µM
P388 leukemia
  TGI: 20.5 µM
HCC-2998 colon
  TGI: > 100 µM
HT29 colon
  TGI: > 100 µM
KM12 colon
  TGI: > 100 µM
CAKI-1 renal
  TGI: > 89.6 µM
HCT-15 colon
  TGI: 58.2 µM
SK-MEL-28 melanoma
  TGI: 63.4 µM
HCT-116 colon
  TGI: > 94.4 µM

## O=C(O)[C@H](NS(=O)(=O)c1ccc([N+](=O)[O-])cc1)c1ccccc1
OVCAR-5 ovarian
  TGI: > 100 µM
786-0 renal
  TGI: > 100 µM
HOP-92 NSCLC
  TGI: > 100 µM
UACC-62 melanoma
  TGI: > 100 µM
M19-MEL melanoma
  TGI: > 100 µM
UACC-257 melanoma
  TGI: > 100 µM
IGROV1 ovarian
  TGI: > 100 µM
DMS 273 small cell lung
  TGI: > 100 µM
SF-268 CNS
  TGI: > 100 µM
U251 CNS
  TGI: > 100 µM
CCRF-CEM leukemia
  TGI: > 100 µM
COLO 205 colon
  TGI: > 100 µM
A549 NSCLC
  TGI: > 100 µM
MALME-3M melanoma
  TGI: > 100 µM
HOP-18 NSCLC
  TGI: > 100 µM
XF 498 CNS
  TGI: > 100 µM
RPMI-8226 leukemia
  TGI: > 100 µM
DMS 114 small cell lung
  TGI: > 100 µM
NCI-H226 lung
  TGI: > 100 µM
MOLT-4 leukemia
  TGI: > 100 µM
LXFL 529 NSCLC
  TGI: > 100 µM
NCI-H522 lung
  TGI: > 100 µM
TK-10 renal
  TGI: > 100 µM
SNB-75 CNS
  TGI: > 100 µM
ACHN renal
  TGI: > 100 µM
SF-539 CNS
  TGI: > 100 µM
UO-31 renal
  TGI: > 100 µM
SK-MEL-2 melanoma
  TGI: > 100 µM
SK-MEL-5 melanoma
  TGI: > 100 µM
OVCAR-4 ovarian
  TGI: > 100 µM
SN12C renal
  TGI: > 100 µM
K-562 leukemia
  TGI: > 100 µM
SNB-78 CNS
  TGI: > 100 µM
NCI-H23 lung
  TGI: > 100 µM
DLD-1 colon
  TGI: > 100 µM
SK-OV-3 ovarian
  TGI: > 100 µM
SNB-19 CNS
  TGI: > 100 µM
M14 melanoma
  TGI: > 100 µM
SW-620 colon
  TGI: > 100 µM
NCI-H460 lung
  TGI: > 100 µM
RXF 393 renal
  TGI: > 100 µM
RXF-631 renal
  TGI: > 100 µM
KM20L2 colon
  TGI: > 100 µM
OVCAR-3 ovarian
  TGI: > 100 µM
HOP-62 NSCLC
  TGI: > 100 µM
EKVX NSCLC
  TGI: > 100 µM
LOX IMVI melanoma
  TGI: > 100 µM
SF-295 CNS
  TGI: > 100 µM
OVCAR-8 ovarian
  TGI: > 100 µM
HCC-2998 colon
  TGI: > 100 µM
HT29 colon
  TGI: > 100 µM
KM12 colon
  TGI: > 100 µM
CAKI-1 renal
  TGI: > 100 µM
HCT-15 colon
  TGI: > 100 µM
SK-MEL-28 melanoma
  TGI: > 100 µM
HCT-116 colon
  TGI: > 100 µM
